Source: patent US6451548B1, “Methods for screening for specific inhibitors of trap and identifying compounds for treatment of diseases or conditions resulting in increased bone resorption using activated TRAP” (Biovitrum AB, priority 1998, dated 2002)
Like-named read-outs stand apart in the source and are kept apart here. Where no end group is shown, it is not given here. [ ]: non-standard residue; d: D form. pY = N[C@@H](Cc1ccc(OP(=O)(O)O)cc1)C(=O)O; pT = C[C@@H](OP(=O)(O)O)[C@H](N)C(=O)O; pS = N[C@@H](COP(=O)(O)O)C(=O)O

Legend:
[1] = target: T1, recombinant rat TRAP produced using Baculovirus expression system (BacTRAP) (Rattus norvegicus, UniProt P29288); assay: Substrate specificity of recombinant TRAP (phosphatase assay); assay type: biochemical
T1 construct: made in house
T1 sequence (P29288 23-327): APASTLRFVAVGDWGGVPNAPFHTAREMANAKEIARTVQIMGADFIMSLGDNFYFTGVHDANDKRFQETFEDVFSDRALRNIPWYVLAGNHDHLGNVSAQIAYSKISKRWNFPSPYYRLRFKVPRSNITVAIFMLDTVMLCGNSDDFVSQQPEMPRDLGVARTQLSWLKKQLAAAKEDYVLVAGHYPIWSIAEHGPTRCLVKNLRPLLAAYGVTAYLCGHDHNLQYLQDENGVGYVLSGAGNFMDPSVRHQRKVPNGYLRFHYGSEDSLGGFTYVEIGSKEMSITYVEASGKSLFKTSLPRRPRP
Protocol: (§1) The substrates were dissolved in incubation medium containing the same buffer as in the pNPP-assay. […] A phosphate standard curve […] was always run in parallel. […] In order to validate whether the structural alterations induced by proteolytic cleavage of the monomeric TRAP was generally affecting known substrates for TRAP and not restricted to the non-physiological substrate pNPP, we surveyed a number of different phosphoaminoacids, phosphopeptides and the phosphoprotein osteopontin as substrates for the TRAPs (See Table II).

[2] = target: T2, TRAP isolated from rat bone (BoneTRAP) (Rattus norvegicus, UniProt P29288); assay: Substrate specificity of bone TRAP (phosphatase assay); assay type: biochemical; details: for Ratio Bone/Bac: Kcat/Km BoneTRAP over BacTRAP
T2 construct: from tissue; host or cells: long bones of 3 week old Sprague Dawley rats
T2 sequence (P29288 23-327): T1 sequence (P29288 23-327)
T2 sequence (P29288 184-327): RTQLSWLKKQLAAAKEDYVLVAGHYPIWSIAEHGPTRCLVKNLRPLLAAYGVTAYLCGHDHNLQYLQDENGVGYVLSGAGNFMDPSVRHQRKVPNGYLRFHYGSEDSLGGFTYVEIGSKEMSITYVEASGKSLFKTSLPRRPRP
Protocol: as §1

rat bone TRAP = target: T3, rat bone TRAP (Rattus norvegicus, UniProt P29288); assay: Preincubation with reducing agents, bone TRAP; assay type: biochemical
T3 construct: from tissue; host or cells: long bones of 3 week old Sprague Dawley rats
T3 sequence (P29288 23-327): T1 sequence (P29288 23-327)
T3 sequence (P29288 184-327): T2 sequence (P29288 184-327)
Protocol: (§2) P-nitrophenylphosphosphatase activity was assayed in 96-well plates using the p-nitrophenylphosphate (pNPP) as substrate in the incubation medium (150 μl) containing (final concentrations); 10 mM pNPP, 0.1 M sodium acetate pH 5.8, 0.15 M KCl, 0.1% Triton X-100, 10 mM sodium tartrate, 1 mM ascorbic acid and 0.1 mM FeCl3. The p-nitrophenol liberated after 1 hour of incubation at 37° C. was converted into p-nitrophenylate by the addition of 100 μl of 0.3 M NaOH, and the absorbance was read at 405 nm. For absorbance reading a Spectramax 250 spectrophotometer (Molecular Devices, Sunnyvale, Calif.) was used.
(§3) c) BaculoTRAP digested with papain or trypsin were compared with undigested baculoTRAP and bone TRAP. Ascorbic acid and FeCl3 were used as reducing agents during preincubation of TRAP for indicated time intervals in a total volume of 70 μl with (final concentrations); 1 mM ascorbic acid, 0.1 mM FeCl3, 0.15 M KCl, 10 mM sodium tartrate, 0.1% Triton X-100. Except for a substrate incubation time of 10 min, TRAP activity was measured after the addition of 80 μl of substrate solution as described under Materials and Methods.

[3] = target: T4, intact recombinant TRAP (baculoTRAP) (Rattus norvegicus, UniProt P29288); assay: Preincubation with reducing agents, intact recombinant TRAP; assay type: biochemical; details: ascorbate 1 mM in the presence of 0.1 mM FeCl3
T4 construct: made in house
T4 sequence (P29288 23-327): T1 sequence (P29288 23-327)
Protocol: as §2, §3

[4] = target: T5, recombinant rat TRAP (BacTRAP) (Rattus norvegicus, UniProt P29288); assay: pNPP hydrolysis by untreated recombinant TRAP; assay type: biochemical
T5 construct: made in house
T5 sequence (P29288 23-327): T1 sequence (P29288 23-327)
Protocol: as §2
(§4) 1 U of p-nitrophenylphosphatase activity corresponds to 1 μmole of p-nitrophenol liberated per minute at 37° C. […] The substrates were dissolved in incubation medium containing the same buffer as in the pNPP-assay. After 1 hour of incubation (final volume 50 μl) at 37° C. the assay was stopped by addition of 50 μl of color reagens (0.12% Malachite-green in 3 M H2SO4/7.5% ammomium molybdate/11% Tween-20; 10:2.5:0.2). A phosphate standard curve (0-nmol) was always run in parallel. After color development for 10 min the absorbance at 630 nm was measured using a Spectramax 250 spectrophotometer.

BacTRAP + trypsin = assay: pNPP hydrolysis by trypsin-digested recombinant TRAP; assay type: biochemical, rat
Protocol: as §2
as §4, with “A phosphate standard curve (0-nmol) was always run in parallel.” left out, “spectrophotometer. […]” for “spectrophotometer.”
(§5) Incubation was performed at room temperature for 1 h with the suspension kept well mixed during the reaction period. The proteolytic digestions above were stopped by centrifugation and the cleavage products of TRAP in the supernatant were further analyzed. […]

BacTRAP + papain = target: T6, BacTRAP + papain (Rattus norvegicus, UniProt P29288); assay: pNPP hydrolysis by papain-digested recombinant TRAP; assay type: biochemical
T6 construct: made in house; host or cells: recombinant Baculovirus-infected cells; then digested with papain-agarose
T6 sequence (P29288 23-327): T1 sequence (P29288 23-327)
T6 sequence (P29288 184-327): T2 sequence (P29288 184-327)
Protocol: as §2, §4
Proteolytic Digestion of TRAP 25 μg baculoTRAP or bone TRAP were digested with […] papain-agarose in 500 μl of incubation solution; 10 mM sodium acetate, pH 4.6, 0.1% Triton X-100 and 2 mM DTT. Incubation was performed at room temperature for 24 h, with constant mixing of the gel. 25 μg baculo TRAP or bone TRAP were digested with 100 μl (5units) trypsin-agarose in 500 μl of incubation solution; 10 mM Tris pH 7.0 and 0.1% Triton X-100.
Incubation was performed at room temperature for 1 h with the suspension kept well mixed during the reaction period. The proteolytic digestions above were stopped by centrifugation and the cleavage products of TRAP in the supernatant were further analyzed. Digestion of baculo TRAP or bone TRAP with cathepsin B were performed at (final concentrations); 10 ng TRAP/μl, 0.4 mU cathepsin B/μl, 2 mM DTT, 50 mM sodium acetate and 1 mM EDTA, pH 5.5. The incubations were performed at 37° C. for 24 h and digestions were stopped with protease inhibitor cocktail Complete according to the instructions of the manufacturer.

BacTRAP + Cath. B = assay: pNPP hydrolysis by cathepsin B-digested recombinant TRAP; assay type: biochemical, rat
Protocol: as §2
as §4, with “A phosphate standard curve (0-nmol) was always run in parallel.” left out
as §5

BoneTRAP = target: T7, BoneTRAP (Rattus norvegicus, UniProt P29288); assay: pNPP hydrolysis by bone TRAP; assay type: biochemical; details: BoneTRAP untreated
T7 construct: from tissue; host or cells: long bones of 3 week old Sprague Dawley rats
T7 sequence (P29288 23-327): T1 sequence (P29288 23-327)
T7 sequence (P29288 184-327): T2 sequence (P29288 184-327)
Protocol: Bone TRAP was purified from the long bones of 40 3 week old Sprague Dawley rats. All operations were performed at 4° C. The dissected bones, free from soft tissue, were cut into small pieces and placed in homogenization solution with protease inhibitors (3 ml/g bone); 0.15 M KCl, 0.1% Triton X-100, Pefabloc (1 mg/ml), Pepstatin A (10 μg/ml), E-64 (10 μg/ml) and 5 mM EDTA. A Polytron homogenizer (Brinkman Instruments Westbury, N.Y.) was used for homogenization during 10 seconds, with 1 minute intervals, until a homogenous suspension was achieved. The homogenate was cleared by centrifugation at 3,200×g for 30 min. 5 % protamine sulfate was added dropwise to the supernatant during continous stirring to a final concentration of 0.5%, with further stirring for 30 min. […]
as §2, with “used. […]” for “used.”

[5] = Kcat/Km relative to pT = 1.0, BacTRAP
[6] = Kcat/Km relative to pT = 1.0, BoneTRAP

| Ratio (BacTRAP) [1, 5] | Ratio Bone/Bac [2] | Ratio (BoneTRAP) [2, 6] | Molecule | also measured |
| --- | --- | --- | --- | --- |
| 375 | 10 | 280 | END[pY]INASL |  |
| 1.0 | 14 | 1.0 | C[C@@H](OP(=O)(O)O)[C@H](N)C(=O)O [pT, Phosphothreonine] |  |
| 2.8 | 5.0 | 10 | RRA[pT]VA |  |
| 14 | 15 | 15 | FRI[pS]HELDS |  |
| 250 | 19 | 350 | N[C@@H](Cc1ccc(OP(=O)(O)O)cc1)C(=O)O [pY, phosphotyrosine] |  |

The remaining lines, values behind:

| Molecule | Ratio (BacTRAP) [1, 5] | Ratio Bone/Bac [2] | Ratio (BoneTRAP) [2, 6] | also measured |
| --- | --- | --- | --- | --- |
| O=C1O[C@H]([C@@H](O)CO)C(O)=C1O [ascorbate, ascorbic acid] |  |  |  | effect of prolonged pre-incubation on TRAP activity (rat bone TRAP; ascorbate 1 mM in the presence of 0.1 mM FeCl3): time-dependent inactivation; time to maximal activation (rat bone TRAP; pre-incubation with ascorbate 1 mM, 0.1 mM FeCl3): ≤ 10 min; effect of prolonged pre-incubation on TRAP activity [3]: did not show this tendency for inactivation |
| OPN: acidic phospho-seryl protein osteopontin purified from bovine milk | 1875 | 17 | 2360 |  |
| N[C@@H](COP(=O)(O)O)C(=O)O [pS, phosphoserine] | 1.2 | 22 | 2.0 |  |
| O=[N+]([O-])c1ccc(OP(=O)(O)O)cc1 [pNPP, p-nitrophenylphosphate] |  | 8.8 |  | Km ([4]; pNPP hydrolysis, BacTRAP untreated): 3100 µM; pH-optimum of pNPP hydrolysis ([4]; recombinant TRAP as isolated): 4.5-5.0 pH; Km (BacTRAP + trypsin): 2100 µM; Km (BacTRAP + papain; pNPP hydrolysis, BacTRAP + papain): 1000 µM; increase in the ratio kcat/Km (BacTRAP + papain; papain-cleaved recombinant TRAP compared to untreated monomeric TRAP): 10 fold; decrease in the Km for pNPP (BacTRAP + papain; papain-cleaved vs untreated recombinant TRAP): 3 fold; optimal pH of pNPP hydrolysis (BacTRAP + papain; recombinant TRAP cleaved with papain): 5.5-6.0 pH; Km (BacTRAP + Cath. B): 900 µM; Km (BoneTRAP): 1000 µM; Ratio (BacTRAP) [1]: 1075; Ratio (BoneTRAP) [2]: 690 |
| EDEE[pS]EDEE | 50 | 4.2 | 15 |  |
| DADE(pY)LIPQQG | 475 | 18 | 640 |  |
